Assay results as given in article PMC9019904, “AD Informer Set: Chemical tools to facilitate Alzheimer's disease drug discovery” (Alzheimer's & Dementia : Translational Research & Clinical …, 2022).
≈ marks a conversion by molar mass, not a printed value. Where two headings read alike, the source gives them in different places.

Tests used:
[1] = test system: BV2 (mouse microglia) cell line; assay: pHrodo-myelin phagocytosis/cell viability high content imaging assay: viability (cell count, nuclear area, nuclear intensity)
In short: (§1)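 10 μM single dose, 48 h total; pHrodo-myelin present final 20 h. Read-out: automated imaging, total cell count/well, mean nuclear intensity/cell. n=2, normalized to untreated wells, % control.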

[2] = test system: HMC3 (human microglia) cell line; assay: as above
In short: as §1

[3] = test system: BV2 (mouse microglia) cell line; assay: pHrodo-myelin phagocytosis/cell viability high content imaging assay: phagocytosis signal; format: cell-based
In short: (§2)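 Simultaneous phagocytosis/viability imaging at approximately 22 h after adding pHrodo-myelin. Rising intensity flagged early apoptosis and falling intensity later apoptosis.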

[4] = test system: HMC3 (human microglia) cell line; assay: as above; format: cell-based
In short: as §2

[5] = test system: protein product expressed by the gene target; settings: cited from earlier work
[6] = Kinetic solubility in aqueous buffer pH 7.4 by total chemiluminescent nitrogen determination (Analiza); settings: aqueous buffer, pH 7.4, aqueous buffer, kinetic from dmso stock
cellular system = settings: published cellular activity at 10 μM; cited from earlier work
physchem = settings: pH 7.4, aqueous buffer, kinetic from dmso stock
[7] = BV2, compound 10 uM, 48 hours treatment
[8] = HMC3, compound 10 uM, 48 hours treatment
[9] = gene target APP, ref PubMed 22323718

O=C(Cn1cc(S(=O)(=O)N2CCCC2)ccc1=O)c1ccc(-c2cccc(C(F)(F)F)c2)cc1 [UNC8367A, reference compound]
Mouse microglial cytotoxicity at 10 μM (<70% control) ([1]; BV2, 10 μM): Y (The compound was found to be cytotoxic (cell count threshold: <70% control) when murine immortalized microglial cells were dosed at 10 μM (Y: yes)) | 1. Cell count (% control) [1, 7]: 56.7 % control | 2. Nuclear Area (% Control) [1, 7]: 109.8 % Control | 3. Nuclear DNA Intensity (% control) [1, 7]: 118.7 % control | 1. Cell count (% control) [2, 8]: 109.8 % control | 2. Nuclear Area (% Control) [2, 8]: 95.2 % Control | 3. Nuclear DNA Intensity (% control) [2, 8]: 108.6 % control | Stimulation of mouse microglial phagocytosis at 10 μM (>150% control) ([3]; BV2, 10 μM): Y (The compound was found to stimulate phagocytosis (response threshold: >150% control) when murine immortalized microglial cells were dosed at 10 μM (Y: yes)) | 4. Phagocytosis (% control) ([3]; BV2, compound 10 uM, pHrodo-myelin): 408.0 % control | phagocytosis in human microglial cells (< 70% control inhibition, > 150% control stimulation) ([4]; HMC3, 10 μM, pHrodo-myelin): stimulatory | 4. Phagocytosis (% control) ([4]; HMC3, compound 10 uM, pHrodo-myelin): 146.9 % control | Reported on-target biochemical potency ([5]; gene target DOCK1, ref PubMed 28467910, 29432733): 8400 nM | solubility kinetic [6]: 6.5 µM (≈ 3.19 µg/mL)

COc1nc(OCc2cccc(-c3ccccc3)c2C)ccc1CNCCNC(C)=O.Cl [BMS-202]
Mouse microglial cytotoxicity at 10 μM (<70% control) ([1]; BV2 cells, 10 μM, cell count <70% control): Y (The compound was found to be cytotoxic (cell count threshold: <70% control) when murine immortalized microglial cells were dosed at 10 μM (Y: yes)) | Human microglial cytotoxicity at 10 μM (<70% control) ([2]; HMC3 cells, cell count <70% control): Y (The compound was found to be cytotoxic (cell count threshold: <70% control) when human immortalized microglial cells were dosed at 10 μM (Y: yes)) | Inhibition of mouse microglial phagocytosis at 10 μM (<70% control) ([3]; BV2 cells, 10 μM): Y (The compound was found to inhibit phagocytosis (response threshold: <70% control) when murine immortalized microglial cells were dosed at 10 μM (Y: yes)) | Inhibition of human microglial phagocytosis at 10 μM (<70% control) ([4]; HMC3 cells): Y (The compound was found to inhibit phagocytosis (response threshold: <70% control) when human immortalized microglial cells were dosed at 10 μM (Y: yes)) | Reported as cell active (<10 μM) (cellular system): Y (Published data supports that the compound is active in a cellular system when dosed at 10 μM (Y/N)) | solubility kinetic (physchem): 97.9 µM

O=c1ncn2nc(Sc3ccc(F)cc3F)ccc2c1-c1c(Cl)cccc1Cl [Neflamapimod (VX-745)]
Stimulation of mouse microglial phagocytosis at 10 μM (>150% control) ([3]; 10 μM, BV2): Y (The compound was found to stimulate phagocytosis (response threshold: >150% control) when murine immortalized microglial cells were dosed at 10 μM (Y: yes)) | Reported on-target biochemical potency ([5]; target MAPK11, ref PubMed 24900264): 220 nM | Reported on-target biochemical potency ([5]; target MAPK14, ref PubMed 24900264): 10 nM | solubility kinetic [6]: 48.1 µM (≈ 21 µg/mL)

C[C@H](N/C(=N\c1cccc2ncccc12)NC#N)c1ccccc1 [A-804598]
Inhibition of human microglial phagocytosis at 10 μM (<70% control) ([4]; HMC3): Y (The compound was found to inhibit phagocytosis (response threshold: <70% control) when human immortalized microglial cells were dosed at 10 μM (Y: yes)) | Reported on-target biochemical potency ([5]; target P2X7, ref PubMed 18602931, 28716092, 28871219, 29934546): 10 nM | solubility kinetic [6]: 31.1 µM (≈ 9.81 µg/mL)

CN(C)c1ccc2c(c1)Sc1cc(N(C)C)ccc1N2.CS(=O)(=O)O.CS(=O)(=O)O [TRx0237 (LMTX) mesylate]
Mouse microglial cytotoxicity at 10 μM (<70% control) ([1]; 10 μM, BV2): Y (The compound was found to be cytotoxic (cell count threshold: <70% control) when murine immortalized microglial cells were dosed at 10 μM (Y: yes)) | Human microglial cytotoxicity at 10 μM (<70% control) ([2]; HMC3): Y (The compound was found to be cytotoxic (cell count threshold: <70% control) when human immortalized microglial cells were dosed at 10 μM (Y: yes)) | Inhibition of human microglial phagocytosis at 10 μM (<70% control) ([4]; HMC3): Y (The compound was found to inhibit phagocytosis (response threshold: <70% control) when human immortalized microglial cells were dosed at 10 μM (Y: yes)) | Reported on-target biochemical potency ([5]; target gene MAPT, ref PubMed 26809554): 160 nM | solubility kinetic [6]: 115 µM

CCOC(=O)N1c2ccc(C(F)(F)F)cc2[C@@H](N(Cc2cc(C(F)(F)F)cc(C(F)(F)F)c2)C(=O)OC)C[C@H]1CC [Torcetrapib]
Reported on-target biochemical potency ([5]; gene target CETP, ref Probe Miner, PubMed 17984165, 19164467): 7.72 nM | solubility kinetic [6]: < 1.1 µM

CC(C)[C@H](O)C(=O)N[C@@H](C)C(=O)N[C@@H]1C(=O)N(C)CCc2ccccc21 [Semagacestat (LY450139)]
Stimulation of mouse microglial phagocytosis at 10 μM (>150% control) ([3]; BV2, 10 μM): Y (The compound was found to stimulate phagocytosis (response threshold: >150% control) when murine immortalized microglial cells were dosed at 10 μM (Y: yes)) | Reported on-target biochemical potency (nM): Aβ38 [5, 9]: 12 nM | Reported on-target biochemical potency (nM): Aβ40 [5, 9]: 12.1 nM | Reported on-target biochemical potency (nM): Aβ42 [5, 9]: 10.9 nM | solubility kinetic [6]: 176 µM (≈ 63.8 µg/mL)

N#CC(CCCN1CCN(/N=C/c2cccnc2)CC1)(c1ccccc1)c1ccccc1 [SC-26196]
Reported on-target biochemical potency ([5]; gene target FADS2, ref PubMed 18719641, 23112819, 10419129): 200 nM | solubility kinetic [6]: 1.9 µM (≈ 0.805 µg/mL)

Cc1ccc(NC(=O)c2ccc(CN3CCN(C)CC3)cc2)cc1Nc1nc(-c2cccnc2)cs1 [Masitinib (AB1010)]
Mouse microglial cytotoxicity at 10 μM (<70% control) ([1]; 10 μM, BV2): Y (The compound was found to be cytotoxic (cell count threshold: <70% control) when murine immortalized microglial cells were dosed at 10 μM (Y: yes)) | Inhibition of mouse microglial phagocytosis at 10 μM (<70% control) ([3]; 10 μM, BV2): Y (The compound was found to inhibit phagocytosis (response threshold: <70% control) when murine immortalized microglial cells were dosed at 10 μM (Y: yes)) | Inhibition of human microglial phagocytosis at 10 μM (<70% control) ([4]; HMC3): Y (The compound was found to inhibit phagocytosis (response threshold: <70% control) when human immortalized microglial cells were dosed at 10 μM (Y: yes)) | Reported on-target biochemical potency ([5]; target KIT, ref PubMed PMC2746281): 200 nM | Reported on-target biochemical potency ([5]; target LYN, ref PubMed PMC2746281): 510 nM | Reported on-target biochemical potency ([5]; target PDGFRα, ref PubMed PMC2746281): 540 nM | Reported on-target biochemical potency ([5]; target PDGFRβ, ref PubMed PMC2746281): 800 nM | solubility kinetic [6]: 93.9 µM (≈ 46.8 µg/mL)

O=C(N/N=C/c1ccc(Cl)cc1)c1ccccc1 [Compound 1e]
Reported on-target biochemical potency ([5]; gene target CTSH, ref PubMed 25181676): 440 nM | solubility kinetic [6]: 37.8 µM (≈ 9.78 µg/mL)

CCN(CC)Cc1ccc(C(=O)N(CCc2ccccc2OC)[C@@H]2CCNC2)cc1.Cl.Cl [PF429242]
Stimulation of mouse microglial phagocytosis at 10 μM (>150% control) ([3]; BV2 cells, 10 μM): Y (The compound was found to stimulate phagocytosis (response threshold: >150% control) when murine immortalized microglial cells were dosed at 10 μM (Y: yes)) | Inhibition of human microglial phagocytosis at 10 μM (<70% control) ([4]; HMC3 cells): Y (The compound was found to inhibit phagocytosis (response threshold: <70% control) when human immortalized microglial cells were dosed at 10 μM (Y: yes)) | Reported as cell active (<10 μM) (cellular system): Y (Published data supports that the compound is active in a cellular system when dosed at 10 μM (Y/N)) | solubility kinetic (physchem): 131 µM

CN1C(=N)N[C@](C)(c2cc(NC(=O)c3ccc(F)cn3)ccc2F)CS1(=O)=O [Verubecestat (MK-8931)]
Reported on-target biochemical potency (nM): BACE1 ([5]; gene target BACE1, ref PubMed 27418961, 27023706): 1.8 nM | Reported on-target biochemical potency (nM): BACE2 ([5]; gene target BACE2, ref PubMed 27418961, 27023706): 0.37 nM | solubility kinetic [6]: 154 µM (≈ 63.3 µg/mL)

Cl.NC(=O)c1cnc(N[C@@H]2CCCC[C@@H]2N)nc1Nc1cccc(-n2nccn2)c1 [P505-15 (PRT06207 HCl)]
Inhibition of mouse microglial phagocytosis at 10 μM (<70% control) ([3]; BV2 cells, 10 μM): Y (The compound was found to inhibit phagocytosis (response threshold: <70% control) when murine immortalized microglial cells were dosed at 10 μM (Y: yes)) | Inhibition of human microglial phagocytosis at 10 μM (<70% control) ([4]; HMC3 cells): Y (The compound was found to inhibit phagocytosis (response threshold: <70% control) when human immortalized microglial cells were dosed at 10 μM (Y: yes)) | Reported as cell active (<10 μM) (cellular system): Y (Published data supports that the compound is active in a cellular system when dosed at 10 μM (Y/N)) | solubility kinetic (physchem): 118 µM
